# How the values were obtained:
# [1] = test system: SR; test: Cytotoxicity against human SR cells assessed as growth inhibition after 48 hrs by sulforhodamine B assay; type: functional; conditions: for CC50: read-out: LC50 (the source's name)
# [2] = test system: HT-29; test: Cytotoxicity against human HT-29 cells assessed as growth inhibition after 48 hrs by sulforhodamine B assay; type: functional; conditions: HT-29, 48 h
# [3] = test system: SF-539; test: Cytotoxicity against human SF539 cells assessed as growth inhibition after 48 hrs by sulforhodamine B assay; type: functional; conditions: SF-539, 48 h
# [4] = test system: Malme-3M; test: Cytotoxicity against human MALME-3M cells assessed as growth inhibition after 48 hrs by sulforhodamine B assay; type: functional
# [5] = test system: SK-MEL-2; test: Cytotoxicity against human SK-MEL-2 cells assessed as growth inhibition after 48 hrs by sulforhodamine B assay; type: functional; conditions: SK-MEL-2, 48 h
# [6] = test system: UACC-257; test: Cytotoxicity against human UACC257 cells assessed as growth inhibition after 48 hrs by sulforhodamine B assay; type: functional; conditions: UACC-257, 48 h
# [7] = test system: OVCAR-5; test: Cytotoxicity against human OVCAR5 cells assessed as growth inhibition after 48 hrs by sulforhodamine B assay; type: functional; conditions: OVCAR-5, 48 h
# [8] = test system: ACHN; test: Cytotoxicity against human ACHN cells assessed as growth inhibition after 48 hrs by sulforhodamine B assay; type: functional
# [9] = test system: BT-549; test: Cytotoxicity against human BT549 cells assessed as growth inhibition after 48 hrs by sulforhodamine B assay; type: functional; conditions: BT-549, 48 h
# [10] = test system: MDA-MB-231; test: Cytotoxicity against human MDA-MB-231 cells assessed as growth inhibition after 48 hrs by MTT assay; type: functional, cell-based; conditions: MDA-MB-231, 48 h
# [11] = test system: 786-0; test: Cytotoxicity against human 786-0 cells assessed as cell growth at 0.01 uM after 48 hrs by sulforhodamine B assay relative to control; type: functional; conditions: 786-0, 48 h, read-out: Activity
# [12] = test system: NCI-H226; test: Cytotoxicity against human NCI-H226 cells assessed as cell growth at 0.01 uM after 48 hrs by sulforhodamine B assay relative to control; type: functional; conditions: NCI-H226, 48 h, read-out: Activity
# [13] = test system: SN12C; test: Cytotoxicity against human SN12C cells assessed as cell growth at 0.01 uM after 48 hrs by sulforhodamine B assay relative to control; type: functional; conditions: read-out: Activity
# [14] = test system: BT-549; test: Cytotoxicity against human BT549 cells assessed as cell growth at 0.01 uM after 48 hrs by sulforhodamine B assay relative to control; type: functional; conditions: BT-549, 48 h, read-out: Activity
# [15] = test system: HL-60(TB); test: Cytotoxicity against human HL-60(TB) cells assessed as cell growth at 0.1 uM after 48 hrs by sulforhodamine B assay relative to control; type: functional; conditions: HL-60, 48 h, read-out: Activity
# [16] = test system: U-251; test: Cytotoxicity against human U251 cells assessed as cell growth at 0.1 uM after 48 hrs by sulforhodamine B assay relative to control; type: functional; conditions: U-251, 48 h, read-out: Activity
# [17] = test system: M14; test: Cytotoxicity against human M14 cells assessed as cell growth at 0.1 uM after 48 hrs by sulforhodamine B assay relative to control; type: functional; conditions: M14, 48 h, read-out: Activity
# [18] = test system: NCI/ADR-RES; test: Cytotoxicity against human NCI/ADR-RES cells assessed as cell growth at 0.1 uM after 48 hrs by sulforhodamine B assay relative to control; type: functional; conditions: read-out: Activity
# [19] = test system: DU-145; test: Cytotoxicity against human DU145 cells assessed as cell growth at 0.1 uM after 48 hrs by sulforhodamine B assay relative to control; type: functional; conditions: DU-145, 48 h, read-out: Activity
# [20] = test system: Hs-578T; test: Cytotoxicity against human Hs 578T cells assessed as cell growth at 0.1 uM after 48 hrs by sulforhodamine B assay relative to control; type: functional; conditions: read-out: Activity
# [21] = test system: CCRF-CEM; test: Cytotoxicity against human CCRF-CEM cells assessed as cell growth at 1 uM after 48 hrs by sulforhodamine B assay relative to control; type: functional; conditions: read-out: Activity
# [22] = test system: HOP-62; test: Cytotoxicity against human HOP62 cells assessed as cell growth at 1 uM after 48 hrs by sulforhodamine B assay relative to control; type: functional; conditions: HOP-62, 48 h, read-out: Activity
# [23] = test system: HT-29; test: Cytotoxicity against human HT-29 cells assessed as cell growth at 1 uM after 48 hrs by sulforhodamine B assay relative to control; type: functional; conditions: HT-29, 48 h, read-out: Activity
# [24] = test system: M14; test: Cytotoxicity against human M14 cells assessed as cell growth at 1 uM after 48 hrs by sulforhodamine B assay relative to control; type: functional; conditions: M14, 48 h, read-out: Activity
# [25] = test system: SK-MEL-28; test: Cytotoxicity against human SK-MEL-28 cells assessed as cell growth at 1 uM after 48 hrs by sulforhodamine B assay relative to control; type: functional; conditions: SK-MEL-28, 48 h, read-out: Activity
# [26] = test system: SR; test: Cytotoxicity against human SR cells assessed as cell growth at 10 uM after 48 hrs by sulforhodamine B assay relative to control; type: functional; conditions: read-out: Activity
# [27] = test system: NCI-H522; test: Cytotoxicity against human NCI-H522 cells assessed as cell growth at 10 uM after 48 hrs by sulforhodamine B assay relative to control; type: functional; conditions: NCI-H522, 48 h, read-out: Activity
# [28] = test system: RXF 393; test: Cytotoxicity against human RXF393 cells assessed as cell growth at 10 uM after 48 hrs by sulforhodamine B assay relative to control; type: functional; conditions: RXF 393, 48 h, read-out: Activity
# [29] = test system: HL-60(TB); test: Cytotoxicity against human HL-60(TB) cells assessed as cell growth at 100 uM after 48 hrs by sulforhodamine B assay relative to control; type: functional; conditions: HL-60, 48 h, read-out: Activity
# [30] = test system: RPMI-8226; test: Cytotoxicity against human RPMI8226 cells assessed as cell growth at 100 uM after 48 hrs by sulforhodamine B assay relative to control; type: functional; conditions: RPMI-8226, 48 h, read-out: Activity
# [31] = test system: NCI-H23; test: Cytotoxicity against human NCI-H23 cells assessed as cell growth at 100 uM after 48 hrs by sulforhodamine B assay relative to control; type: functional; conditions: NCI-H23, 48 h, read-out: Activity
# [32] = test system: NCI-H522; test: Cytotoxicity against human NCI-H522 cells assessed as cell growth at 100 uM after 48 hrs by sulforhodamine B assay relative to control; type: functional; conditions: NCI-H522, 48 h, read-out: Activity
# [33] = test system: SW-620; test: Cytotoxicity against human SW620 cells assessed as cell growth at 100 uM after 48 hrs by sulforhodamine B assay relative to control; type: functional; conditions: SW-620, 48 h, read-out: Activity
# [34] = test system: M14; test: Cytotoxicity against human M14 cells assessed as cell growth at 100 uM after 48 hrs by sulforhodamine B assay relative to control; type: functional; conditions: M14, 48 h, read-out: Activity
# [35] = test system: IGROV-1; test: Cytotoxicity against human IGROV1 cells assessed as cell growth at 100 uM after 48 hrs by sulforhodamine B assay relative to control; type: functional; conditions: IGROV-1, 48 h, read-out: Activity
# [36] = test system: 786-0; test: Cytotoxicity against human 786-0 cells assessed as cell growth at 100 uM after 48 hrs by sulforhodamine B assay relative to control; type: functional; conditions: 786-0, 48 h, read-out: Activity
compound,measurement,setting,value
COc1cc(-c2cc(/C=C/C(=O)c3ccc4c(c3)OCO4)[nH]n2)cc(OC)c1OC,TGI,[1],> 100 µM
same,CC50,[1],> 100 µM
same,LC50,[2],9.48 µM
same,TGI,[2],4.55 µM
same,LC50 (concentration killing 50% of cells),[3],25.4 µM
same,TGI,[3],5.73 µM
same,LC50,[4],84.5 µM
same,TGI,[4],20.8 µM
same,LC50 (concentration killing 50% of cells),[5],81.3 µM
same,TGI,[5],28.9 µM
same,LC50,[6],> 100 µM
same,TGI,[6],40.3 µM
same,LC50,[7],> 100 µM
same,TGI,[7],93.5 µM
same,LC50,[8],7.32 µM
same,TGI,[8],3.71 µM
same,LC50 (concentration killing 50% of cells),[9],> 100 µM
same,IC50,[10],1.72 µM
same,growth at 0.01 µM,[11],96%
same,growth at 0.01 µM,[12],97%
same,growth at 0.01 µM,[13],97%
same,growth at 0.01 µM,[14],94%
same,growth at 0.1 µM,[15],95%
same,growth at 0.1 µM,[16],95%
same,growth at 0.1 µM,[17],97%
same,growth at 0.1 µM,[18],95%
same,growth at 0.1 µM,[19],102%
same,growth at 0.1 µM,[20],98%
same,growth at 1 µM,[21],67%
same,growth at 1 µM,[22],95%
same,growth at 1 µM,[23],103%
same,growth at 1 µM,[24],100%
same,growth at 1 µM,[25],92%
same,growth at 10 µM,[26],6%
same,growth at 10 µM,[27],-88%
same,growth at 10 µM,[28],-95%
same,growth at 100 µM,[29],-36%
same,growth at 100 µM,[30],-37%
same,growth at 100 µM,[31],20%
same,growth at 100 µM,[32],-97%
same,growth at 100 µM,[33],1%
same,growth at 100 µM,[34],22%
same,growth at 100 µM,[35],-8%
same,growth at 100 µM,[36],-30%
COc1ccc(C(=O)/C=C/c2cc(-c3cc(OC)c(OC)c(OC)c3)n[nH]2)cc1OC,TGI,[1],> 100 µM
same,CC50,[1],> 100 µM
same,LC50,[2],5.75 µM
same,TGI,[2],3.05 µM
same,GI50,[3],1.27 µM
same,LC50 (concentration killing 50% of cells),[3],5.31 µM
same,TGI,[3],2.6 µM
same,LC50,[4],6.79 µM
same,TGI,[4],3.68 µM
same,LC50 (concentration killing 50% of cells),[5],6.68 µM
same,TGI,[5],3.51 µM
same,LC50,[6],5.37 µM
same,TGI,[6],2.83 µM
same,LC50,[7],5.75 µM
same,TGI,[7],3.03 µM
same,LC50,[8],5.75 µM
same,TGI,[8],3.09 µM
same,LC50 (concentration killing 50% of cells),[9],5.87 µM
same,TGI,[9],2.9 µM
same,IC50,[10],0.62 µM
same,growth at 0.01 µM,[11],96%
same,growth at 0.01 µM,[12],98%
same,growth at 0.01 µM,[13],99%
same,growth at 0.01 µM,[14],95%
same,growth at 0.1 µM,[15],94%
same,growth at 0.1 µM,[16],95%
same,growth at 0.1 µM,[17],98%
same,growth at 0.1 µM,[18],95%
same,growth at 0.1 µM,[19],101%
same,growth at 0.1 µM,[20],99%
same,growth at 1 µM,[21],39%
same,growth at 1 µM,[22],77%
same,growth at 1 µM,[23],88%
same,growth at 1 µM,[24],94%
same,growth at 1 µM,[25],96%
same,growth at 10 µM,[26],2%
same,growth at 10 µM,[27],-95%
same,growth at 10 µM,[28],-98%
same,growth at 100 µM,[29],-51%
same,growth at 100 µM,[30],-41%
same,growth at 100 µM,[31],-75%
same,growth at 100 µM,[32],-97%
same,growth at 100 µM,[33],-67%
same,growth at 100 µM,[34],-68%
same,growth at 100 µM,[35],-73%
same,growth at 100 µM,[36],-84%

# — ChEMBL document CHEMBL4138123, “Design, synthesis and biological evaluation of novel pyrazolochalcones as potential modulators of PI3K/Akt/mTOR pathway and inducers of apoptosis in breast cancer cells” (Eur J Med Chem, 2017)
